Results from paper PMC9263924, “Mycobacterium tuberculosis Methyltransferase Rv1515c Can Suppress Host Defense Mechanisms by Modulating Immune Functions Utilizing a Multipronged Mechanism” (Frontiers in Molecular Biosciences, 2022).

Target: Rv1515c (Mycobacterium tuberculosis, UniProt P71794)
Sequence (P71794 entry or part of it): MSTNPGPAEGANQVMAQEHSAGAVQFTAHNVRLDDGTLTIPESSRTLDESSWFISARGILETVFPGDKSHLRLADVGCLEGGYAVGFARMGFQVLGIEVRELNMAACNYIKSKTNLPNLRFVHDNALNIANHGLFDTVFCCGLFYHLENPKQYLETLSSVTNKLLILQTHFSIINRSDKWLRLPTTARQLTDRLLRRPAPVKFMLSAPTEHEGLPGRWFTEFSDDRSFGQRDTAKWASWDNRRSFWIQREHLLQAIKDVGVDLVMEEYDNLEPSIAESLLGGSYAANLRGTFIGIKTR

## C[S+](CC[C@H](N)C(=O)O)C[C@H]1O[C@@H](n2cnc3c(N)ncnc32)[C@H](O)[C@@H]1O (stereo partly shown) [S-adenosylmethionine]
  EpiQuik DNA MTase kit, 5-methylcytosine antibody detection, absorbance 450 nm: ability of the Rv1515c to transfer a methyl group from Adomet to cytosine
